Measurements: ChEMBL document CHEMBL1127256, “Synthesis of C2-symmetric inhibitors of the HIV-1 protease, with N,N-substituted ethylenediamide and ethylenediamine linkers” (Bioorg Med Chem Lett, 1994)
Activity calls are given as the source filed them. The rule behind the calls is not given here.

Tests used:
[1] = target: Human immunodeficiency virus type 1 protease (Human immunodeficiency virus 1) (UniProt Q72874); test: Percent inhibition of HIV-1 protease against substrate TLNFPIS-AMC (test I) at a concentration of 10 e-5M
[2] = target: Human immunodeficiency virus type 1 protease (Human immunodeficiency virus 1) (UniProt Q72874); test: Percent inhibition of HIV-1 protease against substrate HKARVL-(NO2)F-EAnLSNH2 (test III) at a concentration of 10 e-5M
[3] = target: Human immunodeficiency virus type 1 protease (Human immunodeficiency virus 1) (UniProt Q72874); test: Percent inhibition of HIV-1 protease against substrate SQN-(pNO2)F-PIV (test II) at a concentration of 10 e-5M
[4] = target: Human immunodeficiency virus type 1 protease (Human immunodeficiency virus 1) (UniProt Q72874); test: Percent inhibition of HIV-1 protease against substrate TLNFPIS-AMC (test I) at a concentration of 10 e-5M; Inactive
[5] = target: Human immunodeficiency virus type 1 protease (Human immunodeficiency virus 1) (UniProt Q72874); test: Percent inhibition of HIV-1 protease against substrate SQN-(pNO2)F-PIV (test II) at a concentration of 10 e-5M; Inactive
[6] = target: Human immunodeficiency virus type 1 protease (Human immunodeficiency virus 1) (UniProt Q72874); test: Percent inhibition of HIV-1 protease against substrate HKARVL-(NO2)F-EAnLSNH2 (test III) at a concentration of 10 e-5M; Inactive
[7] = target: Human immunodeficiency virus type 1 protease (Human immunodeficiency virus 1, UniProt Q72874); test: Inhibitory concentration against HIV-1 protease

inhibition [1]	inhibition [2]	inhibition [3]	inhibition [4]	inhibition [5]	inhibition [6]	SMILES	IC50 [7]
36%	33%	53%				CC(C)[C@H](NC(=O)OCc1ccccc1)C(=O)N[C@@H](Cc1ccccc1)CN(CCN(CC(=O)O)C[C@H](Cc1ccccc1)NC(=O)[C@H](NC(=O)OCc1ccccc1)C(C)C)CC(=O)O	
3%		3%			inactive	CC(C)[C@H](NC(=O)OCc1ccccc1)C(=O)N[C@@H](Cc1ccccc1)CN(C)CCN(C)C[C@H](Cc1ccccc1)NC(=O)[C@H](NC(=O)OCc1ccccc1)C(C)C	
3%		3%			inactive	CC(C)[C@H](NC(=O)OCc1ccccc1)C(=O)N[C@@H](Cc1ccccc1)CN(CCN(C[C@H](Cc1ccccc1)NC(=O)[C@H](NC(=O)OCc1ccccc1)C(C)C)C(=O)OC(C)(C)C)C(=O)OC(C)(C)C	
8%	9%	30%				CC(C)[C@H](NC(=O)OCc1ccccc1)C(=O)N[C@@H](Cc1ccccc1)CN(CCO)CCN(CCO)C[C@H](Cc1ccccc1)NC(=O)[C@H](NC(=O)OCc1ccccc1)C(C)C	

Continued, compound first:

SMILES	inhibition [1]	inhibition [2]	inhibition [3]	inhibition [4]	inhibition [5]	inhibition [6]	IC50 [7]
CC(C)[C@H](NC(=O)OCc1ccccc1)C(=O)N[C@@H](Cc1ccccc1)C(=O)N(C)CCN(C)C(=O)[C@H](Cc1ccccc1)NC(=O)[C@H](NC(=O)OCc1ccccc1)C(C)C		16%		inactive	inactive		
CC(C)[C@H](NC(=O)OCc1ccccc1)C(=O)N[C@@H](Cc1ccccc1)C(=O)NCCNC(=O)[C@H](Cc1ccccc1)NC(=O)[C@H](NC(=O)OCc1ccccc1)C(C)C		25%		inactive	inactive		
CC(C)[C@H](NC(=O)OCc1ccccc1)C(=O)N[C@H](CNCCNC[C@H](Cc1ccccc1)NC(=O)[C@H](NC(=O)OCc1ccccc1)C(C)C)Cc1ccccc1	3%		3%			inactive	
CC(C)[C@H](NC(=O)OCc1ccccc1)C(=O)N[C@@H](Cc1ccccc1)[C@@H](O)[C@H](O)[C@H](Cc1ccccc1)NC(=O)[C@H](NC(=O)OCc1ccccc1)C(C)C							< 1 nM
